Source: patent US10393744B2, “Peptides for targeting colorectal cancer, and medical use thereof” (UNIVERSITY OF ULSAN FOUNDATION FOR INDUSTRY COOPERATION, priority 2014, dated 2019)
“Also recorded” adds a separate entry of the source.

Tests used:
[1] = system: Radio-resistant colorectal cancer tissue of patient (case C65); experiment: In vivo/ex vivo imaging and phage elution of Cy5.5-labeled peptide-expressing phages in mouse model transplanted with patient's colorectal cancer tissue (Example 4); set-up: species or system nude mouse; conditions: for in vivo ROI: Cy5.5 fluorescence total flux standardized to Cy5.5 dye control; for ex vivo ROI / pfu/mg (concentration of eluted phages relative to weight of cancer tissue): extracted cancer tissue; for ex vivo ROI: standardized to Cy5.5 dye control
Source text: (§1) Then, the distributed cancer tissue was kept in a specific preservative solution and transferred directly to an animal chamber, so as to maintain a state in which the cancer tissue was not separated from a patient yet. After an NOD/SCID mouse was anesthetized via intraperitoneal injection of anesthetics, the cancer tissue was cut into pieces each having a size of 3×3 mm. Next, each of both flanks of the NOD/SCID mouse was transplanted with a piece of the cut cancer tissues, and sutured. The NOD/SCID mouse was then recovered on a heating pad for about 2 hours (conditions of the preservative solution: HBSS containing 100 IU/ml penicillin, 100 μg/ml streptomycin, 100 μg/ml gentamicin, 2.5 μg/ml amphotericin B, and 5% fetal bovine serum). After completion of the transplantation, the NOD/SCID mouse was raised until tumors were formed. Meanwhile, the formation and growth of tumors were checked at least once a week. When the transplanted cancer tissues grew to a size of at least 500 mm^3, an extraction process was performed thereon. Then, the extracted cancer tissues were each cut into pieces each having a size of 3×3 mm for subculturing. A nude mouse was anesthetized via intraperitoneal injection of anesthetics, and a piece of the cut cancer tissues was transplanted subcutaneously on the right thigh of the nude mouse. A transplantation site was changed from the flank to the thigh so that irradiation can be locally done without affecting other organs during irradiation. That is, a finally used mouse model transplanted with a patient's colorectal cancer tissue in the present invention was a mouse model established in a way that a cancer tissue that underwent subculturing four times was re-transplanted to form a cancer tissue. When the size of the cancer tissue was increased to about 250 mm^3, only the cancer tissue was irradiated with 2 grays (Gy) of radiation. After having recovery time for no longer than 24 hours, in vivo peptide screening was performed. Here, a non-irradiated population, which is a control group, was also subjected to screening in a separate manner.
(§2) In detail, regarding in vivo imaging verification, the peptide-expressing phage was amplified, and a process of linking a fluorescent probe (Cy5.5) was performed. In particular, 1 μg/μl of N-hydroxysuccinimide esters of Cy5.5 (Amersham) was added to 1 mL of bicarbonate buffer (pH 8.3) having the phage concentration of 10^12 plaque forming units (pfu), and then, in a condition where a dark environment was maintained, a phage-surface protein was linked to the Cy5.5 fluorescent probe at room temperature for 3 hours. That is, amine groups of the phage-surface protein were chemically linked to N-hydroxysuccinimide esters of the Cy5.5 fluorescent probe via a covalent bond. The peptide-expressing phages to which the Cy5.5 fluorescent probe was linked were each obtained by precipitation with 170 μl of 20% (w/v) PEG 8000/2.5 M NaCl solution and purification. To determine a proportion of the Cy5.5 fluorescent probe linked to each of the finally obtained phage samples, an IVIS spectrum imaging system (Xenogen) was used for measurement, and region of interest (ROI) values were determined using the software program of a corresponding device.
(§3) In addition, on the last day of the in vivo imaging, the cancer tissues were each extracted, to thereby obtain ex vivo images thereof.

[2] = system: Radio-sensitive colorectal cancer tissue of patient (case C87); experiment: as above; set-up: species or system nude mouse; conditions: for in vivo ROI: Cy5.5 fluorescence total flux standardized to Cy5.5 dye control; for ex vivo ROI / pfu/mg (concentration of eluted phages relative to weight of cancer tissue): extracted cancer tissue; for ex vivo ROI: standardized to Cy5.5 dye control
Source text: as §1, §2, §3

[3] = system: colorectal cancer tissue of radio-resistant case (case C65) and radio-sensitive case (case C87); experiment: Crossover in vivo imaging of B5 peptide-expressing phage in 4 populations (Example 5); set-up: species or system mouse; conditions: 4 populations (C65 and C87, irradiated and non-irradiated); tail vein injection, images until 7th day; compared with Cy5.5 dye and empty phage
Protocol: Among the various peptide-expressing phages selected from the above, the in vivo imaging was attempted again for a B5 peptide, which is a peptide sequence screened only from the irradiated population in the radio-resistant case (case C65). At the same time, to confirm the responsiveness in control groups other than the population of interest, a crossover experiment was carried out. In detail, in the presence of differences in irradiation between the radio-sensitive case and the radio-resistant case of Example 1, the in vivo imaging was carried out to determine the targeting of the B5 peptide sequence in 4 populations in total. Here, the irradiated population of case C65 was set as an experimental group while the non-irradiated population of case C65 and all the populations of case C87 were set as control groups. In the same manner as in Example 4, peptide-expressing phages were amplified and a process of linking a Cy5.5 fluorescent probe was carried out. Then, through the tail vein injection in each population, images thereof were observed until the end of the last 7th day. […]

[4] = system: radio-resistant colorectal cancer patient case (C65) cancer tissue; experiment: Immunohistochemical staining of extracted cancer tissues with anti-M13 antibody (Example 6); type: in vivo, mouse; conditions: cancer tissues of each population extracted after imaging
Protocol: To verify histological targeting ability of the B5 peptide sequence verified in Example 5, the imaging of the B5 peptide sequence was obtained. Then, cancer tissues of each population were extracted to prepare paraffin blocks and slices. In detail, (1) the extracted cancer tissues were immersed in a formaldehyde solution at room temperature for 24 hours in terms of for immobilization. Then, following a dehydration process, paraffin was added to the solution through penetration to form paraffin blocks. Afterwards, a microtome was used to manufacture slices having a thickness of 3 μm. To perform real immunohistological staining, (2) following a deparaffinization process performed on the slices, (3) an unmasking process was performed so that structures of various proteins immobilized to the tissue slices were recovered to restore sites where antibodies normally bind. Sequentially, (4) a blocking process was performed using a 5% BSA solution, (5) primary antibodies were bound (wherein the antibodies used herein were anti-mouse M13 IgG recognizing M13 phage capsid proteins), (6) and secondary antibodies were bound while HRP was bound. Afterwards, (7) sites where phages were present were stained using DAB development, (7) the nuclei […] were stained with hematoxylin, and (8) a dehydration process was performed thereon. […]

[5] = system: radio-resistant colorectal cancer tissue (radio-resistant case 1, other patient); experiment: In vivo imaging of B5 peptide-expressing phage in other patients' colorectal cancer tissue (Example 7); set-up: species or system mouse; conditions: other patient's radio-resistant tissue, with and without irradiation
Protocol: (§4) In detail, by extending the crossover experiment verified in Example 4, radio-sensitive case 1 and radio-resistant case 1 regarding other colorectal cancer tissues of a patient characterized as adenocarcinoma were introduced in addition to the radio-sensitive case and the radio-resistant case of Example 1. In the same manner as in Example 4, the B5 peptide-expressing phages were amplified and a process of linking a Cy5.5 fluorescent probe was carried out. Regarding the confirmation of the targeting ability of the B5 peptide, the in vivo imaging was used for observation in the same manner as in Example 5. […] In detail, the targeting ability of the B5 peptide sequence targeting a factor inducing resistance against radiation during radiation therapy in Example 6 was also verified in other colorectal cancer tissues of a radio-resistant patient, thereby confirming the possibility of the B5 peptide sequence as a sequence that is responsive to cancer microenvironments causing induction of resistivity during radiotherapy on colorectal cancer. However, in the patients having radio-sensitive colorectal cancer, it was clearly confirmed that the B5 peptide sequence, as a peptide sequence showing no targeting ability regardless of irradiation, was a sequence selectively tracing a radio-resistant factor. […]

[6] = system: radio-sensitive colorectal cancer tissue (radio-sensitive case 1, other patient); experiment: as above; set-up: species or system mouse; conditions: other patient's radio-sensitive tissue, with and without irradiation
Protocol: as §4

[7] = case C65, irradiated population (2 Gy)
[8] = case C65, non-irradiated population
[9] = case C87, irradiated population (2 Gy)
[10] = case C87, non-irradiated population

Substance | in vivo ROI [1, 7] | ex vivo ROI [1, 7] | in vivo ROI [1, 8] | ex vivo ROI [1, 8] | in vivo ROI [2, 10] | ex vivo ROI [2, 10] | pfu/mg (concentration of eluted phages relative to weight of cancer tissue) [1, 7] | pfu/mg (concentration of eluted phages relative to weight of cancer tissue) [1, 8] | other results
Cy5.5 [reference compound] | 1.00 | 1.00 | 1.00 | 1.00 | 1.00 | 1.00 | – | – | in vivo ROI [2, 9]: 1.00; ex vivo ROI [2, 9]: 1.00
GYSSFNR [B6] | 3.03 | 2.06 | – | – | 1.12 | 0.62 | 211.76 pfu/mg | – | pfu/mg (concentration of eluted phages relative to weight of cancer tissue) [2, 10]: 3.96 pfu/mg
LKLGEKW [B7] | 1.72 | 0.62 | – | – | – | – | 3.45 pfu/mg | – | in vivo ROI [2, 9]: 1.00; pfu/mg (concentration of eluted phages relative to weight of cancer tissue) [2, 9]: 1.90 pfu/mg; ex vivo ROI [2, 9]: 2.92
NTGSPYE [A2, 7-amino-acid loop peptide expressed on M13 phage, tested as Cy5.5-labeled phage] | – | – | 2.04 | 1.61 | 1.13 | 0.77 | – | 181.48 pfu/mg | in vivo ROI [2, 9]: 1.15; pfu/mg (concentration of eluted phages relative to weight of cancer tissue) [2, 9]: 4.75 pfu/mg; ex vivo ROI [2, 9]: 2.64; pfu/mg (concentration of eluted phages relative to weight of cancer tissue) [2, 10]: 1.55 pfu/mg
NTWMKSK [A11] | – | – | 1.93 | 0.95 | – | – | – | 6.71 pfu/mg | –
SHMEYPR [A1, 7-amino-acid loop peptide expressed on M13 phage, tested as Cy5.5-labeled phage] | 2.27 | 1.89 | 1.77 | 1.27 | 1.68 | 1.72 | 230 pfu/mg | 136.36 pfu/mg | pfu/mg (concentration of eluted phages relative to weight of cancer tissue) [2, 10]: 74.12 pfu/mg
SNVYDHN [A3] | – | – | 1.62 | 0.67 | – | – | – | 34.8 pfu/mg | –
STEHTRS [A4] | – | – | 3.20 | 1.83 | – | – | – | 264.86 pfu/mg | –
STMNGKV [B1] | 1.52 | 1.48 | – | – | – | – | 16.67 pfu/mg | – | –
SWGDRIL [A5] | – | – | 2.16 | 1.52 | – | – | – | 51.38 pfu/mg | –
TPSFSKI [B5] | 4.07 | 2.43 | – | – | – | – | 209.47 pfu/mg | – | targeting ability by in vivo imaging (crossover experiment) [3]: specific binding of a B5 peptide sequence only to an irradiated population in radio-resistant case; also recorded: only the irradiated population of the radio-resistant case (case C65) has exhibited excellent targeting ability; histological targeting ability (immunohistochemical staining of phage) [4]: excellent targeting ability; also recorded: specifically bound only to the irradiated population in the radio-resistant colorectal cancer patient case (C65); targeting ability by in vivo imaging [5]: exhibited targeting ability only in the case of irradiation; targeting ability by in vivo imaging [6]: did not show any targeting ability regardless of irradiation
TVRSSAE [B3] | 2.38 | 1.63 | – | – | – | – | 195.40 pfu/mg | – | –
VPSQKSK [B4] | 2.12 | 1.36 | – | – | – | – | 20.62 pfu/mg | – | –
